Consider one substance from patent US6667173B2, “Nucleic acids encoding platelet derived growth factor-alpha receptors” (The Schepens Eye Research Institute, priority 2000, dated 2003).

Entries after “also recorded” stand apart in the source; their conditions may differ.

In data set [1] the test system is SHP-2. Description: Co-immunoprecipitation of SHP-2 with αPDGFR mutants in F cells. To be noted: 50 ng/ml PDGF-BB, 5 minutes. The format is cell-based, mouse. How it is done: (§1) The ability of the αPDGFR mutants to undergo ligand dependent tyrosine phosphorylation and to associate with signaling enzymes was then tested. F cells expressing various αPDGFR mutants were grown to subconfluence and serum starved overnight. Cells were either left resting (−) or stimulated with 50 ng/ml PDGF-BB (+) for 5 minutes, and lysed. The αPDGFR was immunoprecipitated with αPDGFR antibody, as described above, and the resulting immunoprecipitates were resolved by 7.5% SDS-PAGE and transferred onto Immobilon. The segment of the blot containing the αPDGFR was first blotted with anti-phosphotyrosine antibodies, then stripped and reprobed with an anti-αPDGFR antibody. Portions of the membrane that contained the proteins of the appropriate molecular mass were immunoblotted for PLCγ, the regulatory subunit of PI3K (p85), or SHP-2. Crude rabbit anti-p85 antibody is from Dr. A. Toker (Beth Israel Hospital/Harvard Medical School, Boston, Mass.). The monoclonal antibodies against PLCγ and SHP-2 were purchased from Upstate Biotechnology Inc.

In data set [2] the test system is PLCγ. Description: Co-immunoprecipitation of PLCγ with αPDGFR mutants in F cells. The class given is cell-based, mouse. To be noted: 50 ng/ml PDGF-BB, 5 minutes. How it is done: as §1
Data set [3] deals with rabbit eyes. To be noted: previously found (Rosenkranz et al. 2000); cited from earlier work.
Data set [4] has as its system Src family kinases. To be noted: cited from earlier work.
Data set [5] relates to PI3K (p85). The data set can be described thus: Co-immunoprecipitation of the regulatory subunit of PI3K (p85) with αPDGFR mutants in F cells. The class given is cell-based, mouse. To be noted: 50 ng/ml PDGF-BB, 5 minutes. The method, then: as §1
The subject of data set [6] is F cells. The data set can be described thus: Collagen gel contraction assay of F cells expressing αPDGFR mutants. The format is cell-based, mouse. To be noted: PDGF-BB (50 ng/ml), 48 hours. The method, then:
The contraction assay was based on a previously described reference, Skuta, G. et al. (1999) J. Biol. Chem. 274:30163, with the following modifications. Fα cells were suspended in 1.5 mg/ml of neutralized collagen I (Cohesion vitrogen 100, Palo Alto, Calif.) at a density of 10^6 cells/ml, and were transferred into the 24-well plate (Falcon, Franklyn Lakes, N.J.) that had been preincubated with phosphate-buffer saline (PBS) with 5 mg/ml of bovine serum albumin (BSA) overnight. The gel was solidified by incubating at 37° C. for 90 minutes, and then the well was flooded with DMEM+5 mg/ml of BSA supplemented with an amount of vitreous such that the final concentration of vitreous in the culture medium was 1, 5 or 20%. The gels were incubated at 37° C. with 5% CO2. The initial gel diameter was 15 mm. The media was replaced every 24 hours and the gel diameter was measured after 48 hours. The extent of contraction was calculated by subtracting the diameter of the well at 48 hours from the initial diameter (15 mm). Each experimental condition was assayed in triplicate, and at least three independent experiments were performed. Unpaired t-test was performed to detect statistic difference in contraction assay.
To determine the signaling pathways that drive contraction, cells expressing the αPDGFR mutants were subjected to the collagen gel contraction assay described above. Accordingly, F cells expressing the indicated αPDGFRs were subjected to the collagen gel assay in the presence of buffer, PDGF-BB (50 ng/ml), TGFβ1 (1 ng/ml), or FBS (10%). The data presented are the mean±standard deviation measured at the 48 hours time point. Each experimental condition was assayed in triplicate, and at least 3 independent experiments were performed.

For the substance “F72/74: αPDGFR mutant, Tyr to Phe substitution at 572 and 574”, in data set [1], the “recruitment of SHP-2 (Properties)” value is “bind all of these signaling enzymes”. Besides, the “recruitment or activation of PLCγ (Properties)” value in data set [2] was “bind all of these signaling enzymes”. Also, the “potential to induce PVR” value in data set [3] is listed as “induced PVR with slightly accelerated kinetics”. In data set [4], the “recruitment or activation of Src family kinases (Properties)” value is reported as “selectively fails to associate with Src family kinases; also recorded: Fails to recruit or activate”. Also, the “recruitment of PI3K / p85 (Properties)” value in data set [5] is on record as “bind all of these signaling enzymes”. For the same substance, the PDGF-dependent contraction entry in data set [6] is “no effect on contraction”.
